Molecular target: T1, androgen receptor (AR) (Homo sapiens, UniProt P10275, T878A)
T1 sequence (P10275 1-920 T878A): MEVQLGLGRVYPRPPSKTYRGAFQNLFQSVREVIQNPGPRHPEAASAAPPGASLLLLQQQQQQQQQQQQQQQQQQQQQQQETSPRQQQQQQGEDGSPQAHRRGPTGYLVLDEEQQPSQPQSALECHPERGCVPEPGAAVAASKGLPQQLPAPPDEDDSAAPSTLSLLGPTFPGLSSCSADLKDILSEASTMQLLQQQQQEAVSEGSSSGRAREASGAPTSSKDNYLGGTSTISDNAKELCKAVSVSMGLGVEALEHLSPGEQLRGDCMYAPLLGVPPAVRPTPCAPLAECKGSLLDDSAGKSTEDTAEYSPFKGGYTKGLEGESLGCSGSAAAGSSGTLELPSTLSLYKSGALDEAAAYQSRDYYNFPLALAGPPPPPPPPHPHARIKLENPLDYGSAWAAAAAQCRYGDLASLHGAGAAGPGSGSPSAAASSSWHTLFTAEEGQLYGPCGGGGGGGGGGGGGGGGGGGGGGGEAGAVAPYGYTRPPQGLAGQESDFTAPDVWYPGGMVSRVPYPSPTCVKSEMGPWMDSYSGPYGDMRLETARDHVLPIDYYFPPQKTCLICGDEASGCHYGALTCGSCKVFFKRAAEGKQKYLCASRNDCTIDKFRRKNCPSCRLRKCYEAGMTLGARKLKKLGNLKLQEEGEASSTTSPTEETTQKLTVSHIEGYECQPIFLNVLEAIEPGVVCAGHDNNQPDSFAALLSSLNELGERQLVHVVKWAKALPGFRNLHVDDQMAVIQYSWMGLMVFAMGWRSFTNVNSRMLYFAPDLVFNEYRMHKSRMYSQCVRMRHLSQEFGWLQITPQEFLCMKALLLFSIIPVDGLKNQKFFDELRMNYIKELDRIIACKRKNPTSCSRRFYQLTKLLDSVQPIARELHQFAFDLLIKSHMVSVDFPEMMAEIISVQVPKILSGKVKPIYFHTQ
Assay type: cell-based
Details: for activity in the PSA luciferase assay, in words: C4-2-PSA-rl cells, 1 nM R1881

SMILES	activity in the PSA luciferase assay, in words	other results
Cc1ccccc1N1CCN(CCSCc2c(C)noc2C)CC1 [compound 6]		fold increase in activity relative to amide 5b: 1.3 fold
Cc1ccccc1N1CCN(C(=O)CSc2ccccc2)CC1 [compound 9]	abolished activity	
COc1ccccc1N1CCN(C(=O)CSCc2c(C)noc2C)CC1 [5h]	complete loss of activity	
Cc1ccccc1N1CCN(C(=O)NCSCc2c(C)noc2C)CC1 [20a]	inactive	
Cc1ccccc1N1CCN(C(=O)COCc2c(C)noc2C)CC1 [18a]	abolished activity	
Cc1ccccc1N1CCN(C(=O)C#Cc2ccccc2)CC1 [compound 10]	essentially inactive	
Cc1ccccc1N1CCN(C(=O)[C@H]2C[C@@H]2c2ccccc2)CC1 (relative stereo) [compound 16]	essentially inactive	
Cc1ccc(N2CCN(C(=O)CSCc3c(C)noc3C)CC2)cc1 [5d]	loss of activity	
Cc1ccc(Cl)cc1N1CCN(C(=O)[C@@H]2C[C@@H]2c2ccc(F)cc2)CC1 [(1R,2S)-27]		fold less potent than enantiomer (1S,2R)-27: ca. 10 fold
Cc1noc(C)c1CSCC(=O)N1CCN(c2ccccc2)CC1 [5a]	deleted activity	
Cc1ccccc1N1CCN(C(=O)CN(C)Cc2ccccc2)CC1 [18b]	abolished activity	
Cc1cccc(N2CCN(C(=O)CSCc3c(C)noc3C)CC2)c1 [5c]	loss of activity	
Cc1ccccc1N1CCC(OC(=O)NCSCc2c(C)noc2C)CC1 [20b]	inactive	
Cc1ccccc1N1CCN(C(=O)C[S+]([O-])Cc2c(C)noc2C)CC1 (stereo not shown) [compound 12]	inactive	
Cc1ccc(Cl)cc1N1CCN(C(=O)[C@H]2C[C@H]2c2ccc(F)cc2)CC1 [(1S,2R)-27]	substantially equipotent to the commercial AR antagonist, enzalutamide	
Cc1ccccc1N1CCN(C(=O)/C=C/c2ccccc2)CC1 [compound 11]	essentially inactive	

Source: article PMC4983742 (ACS Medicinal Chemistry Letters, 2016)
